Test results: patent US20220257604A1, “COMPOSITIONS AND METHODS FOR […] INFECTIONS BY REGULATING GLUCOSYLCERAMIDES” (priority 2019, published 2022)

Columns and labels:
A549 cells [1] = format: cell-based, human; conditions: 40 minutes at 37° C., compared with GBA KO cells
A549 cells [2] = format: cell-based, human; conditions: WT A549 cells pretreated with nocodazole; EGF-555 100 ng/mL; 40 minutes at 37° C.; compared with GBA KO cells

COC(=O)Nc1nc2ccc(C(=O)c3cccs3)cc2[nH]1 [nocodazole]
colocalization of influenza with Lamp1 (Manders coefficient) (A549 cells [1]): not as strongly as in WT cells treated with nocodazole
colocalization of EGF with Lamp1 (Manders coefficient) (A549 cells [2]): not as severe as seen in WT cells treated with nocodazole
